Our source for the inhibition values is patent US20240165185A1, “COMBINATION OF A MYRTLE EXTRACT AND A TRIPTERYGIUM WILFORDII EXTRACT FOR COMBATING C. ACNES-INDUCED INFLAMMATION” (priority 2021, published 2024).

Common to all, as to assay type: cell-based
For test [1], the system named is production of IL-8 by dendritic cells derived from monocytes. The test is described as follows: Inhibition of IL-8 production by monocyte-derived dendritic cells stimulated with C. acnes membranes. Particulars: Homo sapiens, Dendritic cell; C. acnes phylotype IA1 membranes, 24 hours stimulation; dexamethasone 300 ng/ml, myrtle extract 10 μg/ml, Trip extract 25 μg/ml, combination 10 and 25 μg/ml; mean of 3 experiments. The procedure: (§1) The experiments were performed on co-cultures of immature dendritic cells derived from monocytes, at a final concentration of 1.10^5 cells/ml/well and biofilms or membranes of C. acnes of phylotype IA1 . The monocytes are purified from human blood by negative selection (The EasySep™ Human Monocyte Enrichment Kit, StemCell).
(§2) On Day 0, the monocytes are incubated in a differentiation medium (Gibco Roswell Park Memorial Institute (RPMI), 10% v/v foetal bovine serum (FBS) that has been decomplemented (heated to 56° C. for 30 minutes), 50 ng/ml IL-4 and 100 ng/ml Recombinant Human Granulocyte Macrophage Colony-Stimulating Factor (GM-CSF)). On the 3rd day of culture, half of the medium is replaced by fresh medium. On day 6, the immature dendritic cells are characterised by flow cytometry and stimulated by a biofilm or membranes of C. acnes.
(§3) The membranes of C. acnes are purchased from the Icare laboratory (Saint-Beauzire, France).
The stimulation of the immature dendritic cells derived from monocytes by the membranes of C. acnes is carried out with a dilution to 1/20 of a solution of membranes in the culture medium (RPMI+10% v/v FBS) at a concentration of 0.15 mg/ml. […]
Several cytokines are evaluated in this study. IL-6, IL-8, IL-10, and IL-12p40; these cytokines are quantified in multiplex using the Luminex technology (Bioplex 200, Biorad).

In test [2] the test system is production of IL-10 by dendritic cells derived from monocytes. The test is described as follows: Inhibition of IL-10 production by monocyte-derived dendritic cells stimulated with biofilm of C. acnes. Particulars: Homo sapiens, Dendritic cell; biofilm of C. acnes phylotype IA1, MOI close to 100, 24 hours stimulation; dexamethasone 300 ng/ml, combination 10 and 25 μg/ml; mean of 3 experiments. The protocol:
as §1, §2
The myrtle extract used in this study is prepared according to example 1. This extract is solubilised and stored at […] in ethanol (10 mg of dry extract prepared according to example 1, in 1 ml of ethanol). The concentration tested is 10 μg/ml.
The extract of Tripterygium wilfordii (Trip extract below) used in this study is prepared according to example 2.

Test [3] has the same test system. The test is described as follows: Inhibition of IL-10 production by monocyte-derived dendritic cells stimulated with C. acnes membranes. The settings on record: Homo sapiens, Dendritic cell; C. acnes phylotype IA1 membranes, 24 hours stimulation; dexamethasone 300 ng/ml, myrtle extract 10 μg/ml, Trip extract 25 μg/ml, combination 10 and 25 μg/ml; mean of 3 experiments. The protocol:
as §1, §2, §3
(§4) The stimulation of the immature dendritic cells derived from monocytes by the membranes of C. acnes is carried out with a dilution to 1/20 of a solution of membranes in the culture medium (RPMI+10% v/v FBS) at a concentration of 0.15 mg/ml.
(§5) The myrtle extract used in this study is prepared according to example 1. This extract is solubilised and stored at […] in ethanol (10 mg of dry extract prepared according to example 1, in 1 ml of ethanol). […]

Test [4] has as its system production of IL-12p40 by dendritic cells derived from monocytes. The test is described as follows: Inhibition of IL-12p40 production by monocyte-derived dendritic cells stimulated with C. acnes membranes. Particulars: Homo sapiens, Dendritic cell; C. acnes phylotype IA1 membranes, 24 hours stimulation; dexamethasone 300 ng/ml, myrtle extract 10 μg/ml, Trip extract 25 μg/ml, combination 10 and 25 μg/ml; mean of 3 experiments. The protocol: as §1, §2, §3, §4, §5

Test [5] has as its system production of IL-6 by dendritic cells derived from monocytes. The test is described as follows: Inhibition of IL-6 production by monocyte-derived dendritic cells stimulated with C. acnes membranes. The settings on record: Homo sapiens, Dendritic cell; C. acnes phylotype IA1 membranes, 24 hours stimulation; dexamethasone 300 ng/ml, myrtle extract 10 μg/ml, Trip extract 25 μg/ml, combination 10 and 25 μg/ml; mean of 3 experiments. The procedure:
as §1, §2, §3, §4, §5

For the compound `C[C@@H]1C[C@H]2[C@@H]3CCC4=CC(=O)C=C[C@]4(C)[C@@]3(F)[C@@H](O)C[C@]2(C)[C@@]1(O)C(=O)CO` [Dexamethasone, dexamethasone], the inhibition at 0.3 µg/mL was 47.6% in test [1]; 38.6% in test [2]; 41.7% in test [3]; 79.5% in test [4]; 76.8% in test [5].

The inhibition is how much of the control response was suppressed.
